Experiments:
mutant E = assay type: cell-based; settings: FR=IC50(mutant strain)/IC50(HIV-1 strain LAI)
Experimental: (§1) HIV- or mock-infected MT4 cells were incubated for five days in the presence of various concentrations of the inhibitor. […] Cell viability is measured by measuring the concentration of MTT, a yellow, water soluble tetrazolium dye that is converted to a purple, water insoluble formazan in the mitochondria of living cells only. Upon solubilization of the resulting formazan crystals with isopropanol, the absorbance of the solution is monitored at 540 nm. The values correlate directly to the number of living cells remaining in the culture at the completion of the five day incubation. The inhibitory activity of the compound was monitored on the virus-infected cells and was expressed as IC50 and IC90. These values represent the amount of the compound required to protect 50% and 90%, respectively, of the cells from the cytopathogenic effect of the virus. […] The selectivity index (SI) (ratio CC50/IC50) is an indication of the selectivity of the anti-HIV activity of the inhibitor. Wherever results are reported as e.g. pIC50 or pCC50 values, the result is expressed as the negative logarithm of the result expressed as IC50 or CC50 respectively.
(§2) Because of the increasing emergence of drug resistant HIV strains, the present compounds were tested for their potency against clinically isolated HIV strains harboring several mutations. […] The viral strains R13025, R13027, R13028, R13029, R13034, R13080, T13127 and R13363 contained mutations as indicated below in Table 3.
(§3) As a measure of the broad spectrum activity of the present compounds, the fold resistance (FR), defined as FR=IC50(mutant strain)/IC50(HIV-1 strain LAI), was determined.

mutant C = test: Antiviral spectrum, fold resistance towards mutant C; assay type: cell-based; settings: FR=IC50(mutant strain)/IC50(HIV-1 strain LAI)
Experimental: (§4) Because of the increasing emergence of drug resistant HIV strains, the present compounds were tested for their potency against clinically isolated HIV strains harboring several mutations. These mutations are associated with resistance to protease inhibitors and result in viruses that show various degrees of phenotypic cross-resistance to the currently commercially available drugs such as for instance saquinavir, ritonavir, nelfinavir, indinavir and amprenavir. The viral strains R13025, R13027, R13028, R13029, R13034, R13080, T13127 and R13363 contained mutations as indicated below in Table 3.

mutant B = test: Antiviral spectrum, fold resistance towards mutant B; assay type: cell-based; settings: FR=IC50(mutant strain)/IC50(HIV-1 strain LAI)
Experimental: as §4

mock-infected MT4 cells = test: in vitro
Experimental: as §1, §3

HIV-1 strain LAI = test: Cellular anti-HIV assay, MT4 cells, MTT readout, wild type HIV-1 strain LAI; assay type: cell-based; settings: for pIC50 (LAI): MT4 cells, five days, HIV-1 strain LAI; for WT (pIC50 against wild type HIV-LAI strain): Table 4
Experimental: The compounds of the present invention were examined for anti-viral activity in a cellular assay. […] The cellular assay was performed according to the following procedure.

mutant D = test: Antiviral spectrum, fold resistance towards mutant D; assay type: cell-based; settings: FR=IC50(mutant strain)/IC50(HIV-1 strain LAI)
Experimental: as §4

mutant F = test: Antiviral spectrum, fold resistance towards mutant F; assay type: cell-based; settings: FR=IC50(mutant strain)/IC50(HIV-1 strain LAI)
Experimental: as §4

mutant A = assay type: cell-based; settings: FR=IC50(mutant strain)/IC50(HIV-1 strain LAI)
Experimental: as §1, §2, §3

mutant H = test: Antiviral spectrum, fold resistance towards mutant H; assay type: cell-based; settings: FR=IC50(mutant strain)/IC50(HIV-1 strain LAI)
Experimental: as §4

[1] = pCC50 value as determined with mock transfected cells

Compound | FR towards mutant E (mutant E) | FR towards mutant C (mutant C) | FR towards mutant B (mutant B) | Tox (pCC50) (mock-infected MT4 cells) | pIC50 (LAI) (HIV-1 strain LAI; Table 1) | WT (pIC50 against wild type HIV-LAI strain) (HIV-1 strain LAI) | FR towards mutant D (mutant D) | FR towards mutant F (mutant F) | FR value towards mutant A (mutant A) | Tox (pCC50) (mock-infected MT4 cells; [1]) | FR towards mutant H (mutant H) | pIC50 (LAI) (HIV-1 strain LAI; Table 2)
Cc1cccc(C)c1OCC(=O)N[C@@H](Cc1ccccc1)[C@H](O)CN(CC(C)C)S(=O)(=O)c1ccc2nc(N)n(C)c2c1 [Compound 13] | 4.5 | 2.5 | 3.4 | <4 | 7.7 | 7.7 | 3.4 | – | – | – | – | –
CC(C)CN(C[C@@H](O)[C@H](Cc1ccccc1)NC(=O)O[C@H]1CCOC1)S(=O)(=O)c1ccc2ncn(C)c2c1 [Compound 16] | 5.4 | 2.6 | – | <4.49 | 7.7 | 7.7 | 5.9 | 288 | – | – | – | –
COC(=O)Nc1nc2ccc(S(=O)(=O)N(CC(C)C)C[C@@H](O)[C@H](Cc3ccccc3)NC(=O)COc3c(C)cc(N(C)C)cc3C)cc2[nH]1 [Compound 19] | 3.5 | 1.4 | 1.2 | – | 7.5 | 7.5 | 3.6 | 83 | 5.6 | <4 | – | –
CC(C)CN(C[C@@H](O)[C@H](Cc1ccccc1)NC(=O)OCc1cncs1)S(=O)(=O)c1ccc2nc[nH]c2c1 [Compound 23] | 4.8 | 3.5 | 2.3 | <4 | 7.3 | 7.3 | 2.5 | 23 | 7.1 | – | – | –
CC(C)CN(C[C@@H](O)[C@H](Cc1ccccc1)NC(=O)OCc1cncs1)S(=O)(=O)c1ccc2ncn(C)c2c1 [Compound 33] | 19 | – | – | <4 | 7.0 | 7.7 | – | – | 60 | – | 234 | –
CC(C)CN(C[C@@H](O)[C@H](Cc1ccccc1)NC(=O)OCc1cncs1)S(=O)(=O)c1ccc2ncn(CCc3ccccc3)c2c1 [Compound 34] | 17 | – | – | – | 7.0 | 7.0 | – | – | 32 | <4 | 46 | –
CC(C)CN(C[C@@H](O)[C@H](Cc1ccccc1)NC(=O)OCc1cccnc1)S(=O)(=O)c1ccc2nc[nH]c2c1 [Compound 35] | 17 | – | – | – | 7.0 | 7.0 | – | – | 91 | <4 | 148 | –
Cc1cccc(C)c1OCC(=O)N[C@@H](Cc1ccccc1)[C@H](O)CN(CC(C)C)S(=O)(=O)c1ccc2nc(N)[nH]c2c1 [Compound 36] | 3.1 | – | – | 4.19 | 6.5 | 6.5 | – | – | 4.4 | – | 17 | –
CC(C)CN(CC(O)C(Cc1ccccc1)NC(=O)OC1COC2OCCC12)S(=O)(=O)c1ccc2nc(N)n(C)c2c1 (centres unmarked) [Compound 41] | 1.4 | – | – | <4 | 6.6 | 6.6 | – | – | 1.4 | – | 1.5 | –
CC(C)CN(C[C@@H](O)[C@H](Cc1ccccc1)NC(=O)OC(C)(C)C)S(=O)(=O)c1ccc2ncn(CCc3ccccc3)c2c1 [Compound 43] | 12.6 | – | – | – | 6.4 | 6.4 | – | – | 22 | 4.99 | 28 | –
Cc1cccc(C)c1OCC(=O)N[C@@H](Cc1ccccc1)[C@H](O)CN(CC(C)C)S(=O)(=O)c1ccc2ncn(CCc3ccccc3)c2c1 [Compound 47] | 7.8 | – | – | – | 6.4 | 6.4 | – | – | 14 | <4 | 66 | –
Cc1cc(OCC(=O)N[C@@H](Cc2ccccc2)[C@H](O)CN(CC(C)C)S(=O)(=O)c2ccc3nc[nH]c3c2)no1 [Compound 49] | 1.0 | – | – | – | 6.3 | 6.3 | – | – | 12 | <4 | 3.5 | –
CC(C)CN(C[C@@H](O)[C@H](Cc1ccccc1)NC(=O)OC1COC2OCCC12)S(=O)(=O)c1ccc2nc[nH]c2c1 (some centres unmarked) [Compound 50] | 0.83 | – | – | <4 | 6.9 | 6.9 | – | – | 1.4 | – | 2.8 | –
CC(C)CN(C[C@@H](O)[C@H](Cc1ccccc1)NC(=O)OC1COC2OCCC12)S(=O)(=O)c1ccc2nc(N)[nH]c2c1 (some centres unmarked) [Compound 59] | 0.31 | – | – | <4 | 5.3 | 5.3 | – | – | 1.5 | – | 0.39 | –
[(1S,2R)-3-[[(1-methylbenzimidazol-5-yl)sulfonyl](2-methyl-propyl)amino]-2-hydroxy-1-(phenylmethyl)propyl]carbamic acid, [(3R,3aS,6aR)-hexahydrofuro[2,3-b]furan-3-yl]ester [Compound 64] | 1.5 | – | – | – | – | 7.6 | – | – | 4.3 | <4 | 13 | 7.6
